Source: ChEMBL document CHEMBL3407452, “Linear and branched alkyl-esters and amides of gallic acid and other (mono-, di- and tri-) hydroxy benzoyl derivatives as promising anti-HCV inhibitors” (Eur J Med Chem, 2015)
Active and inactive are the calls of the source. No cut-off for these calls is given here.

Test system: Influenza A virus
Test: Antiviral activity against influenza A virus (H1N1)
Type: functional, organism-based
Settings: not given
In the case of `O=C(NCCCOCCOCCOCCCNC(=O)c1ccc(O)c(O)c1O)c1ccc(O)c(O)c1O`, the Activity is reported as “inactive”.
For `O=C(NCCNC(=O)c1cccc(O)c1O)c1cccc(O)c1O`, the Activity was “inactive”.
For `O=C(O)c1cc(O)c(O)c(O)c1` [GALLIC ACID], the Activity was “inactive”.
With `O=C(NCCCCCCNC(=O)c1cc(O)c(O)c(O)c1)c1cc(O)c(O)c(O)c1` the Activity was “inactive”.

Test system: Influenza A virus H3N2
Test: Antiviral activity against influenza A virus H3N2
Type: functional, organism-based
Settings: not given
In the case of `O=C(NCCCOCCOCCOCCCNC(=O)c1ccc(O)c(O)c1O)c1ccc(O)c(O)c1O`, the Activity is reported as “inactive”.
For `O=C(NCCNC(=O)c1cccc(O)c1O)c1cccc(O)c1O`, the Activity was “inactive”.
With `O=C(O)c1cc(O)c(O)c(O)c1` [GALLIC ACID] the Activity was “inactive”.
With `O=C(NCCCCCCNC(=O)c1cc(O)c(O)c(O)c1)c1cc(O)c(O)c(O)c1` the Activity was “inactive”.

Test system: not listed separately
Test: Cytotoxicity against human CEM cells assessed as inhibition of cell proliferation
Type: cell-based
Settings: CEM cells (CCRF-CEM)
Molecule `O=C(NCCCOCCOCCOCCCNC(=O)c1ccc(O)c(O)c1O)c1ccc(O)c(O)c1O` has a CC50 of 81 µM.
With `O=C(NCCNC(=O)c1cccc(O)c1O)c1cccc(O)c1O` the CC50 was 19 µM.
For `O=C(O)c1cc(O)c(O)c(O)c1` [GALLIC ACID], the CC50 was greater than 250 µM.
With `O=C(NCCCCCCNC(=O)c1cc(O)c(O)c(O)c1)c1cc(O)c(O)c(O)c1` the CC50 was 72 µM.

Test system: Hepatitis C virus
Test: Antiviral activity against HCV genotype 1b I389luc-ubi-neo/NS3-3'/5.1 replicons infected in human Huh5-2 HCV subgenomic replicon-containing cells assessed as reduction in virus replication after 3 days by luciferase reporter gene assay
Type: functional, Hepacivirus hominis
Settings: Hepatitis C virus, genotype 1b, Huh-5-2, 72 h
In the case of `O=C(NCCCCCCNC(=O)c1cc(O)c(O)c(O)c1)c1cc(O)c(O)c(O)c1`, the EC90 is reported as greater than 24 µM.

Same assay, conditions: Hepatitis C virus, genotype 1b, Huh-5-2, 72 h; read-out: EC50
Work on `O=C(NCCCOCCOCCOCCCNC(=O)c1ccc(O)c(O)c1O)c1ccc(O)c(O)c1O` yielded an EC50 of 28 µM.
`O=C(NCCCCCCNC(=O)c1cc(O)c(O)c(O)c1)c1cc(O)c(O)c(O)c1` showed an EC50 of 11 µM.

Test system: not listed separately
Test: Cytotoxicity against human Huh5-2 cells after 72 hrs by MTS assay
Type: cell-based, Huh-5-2
Settings: not given
With `O=C(NCCCOCCOCCOCCCNC(=O)c1ccc(O)c(O)c1O)c1ccc(O)c(O)c1O` the CC50 at 72 h was 49 µM.
Work on `O=C(NCCCCCCNC(=O)c1cc(O)c(O)c(O)c1)c1cc(O)c(O)c(O)c1` yielded a CC50 at 72 h of 24 µM.

Test system: Vesicular stomatitis virus
Test: Antiviral activity against vesicular stomatitis virus
Type: functional, organism-based
Settings: not given
In the case of `O=C(NCCCOCCOCCOCCCNC(=O)c1ccc(O)c(O)c1O)c1ccc(O)c(O)c1O`, the Activity is reported as “inactive”.
With `O=C(NCCNC(=O)c1cccc(O)c1O)c1cccc(O)c1O` the Activity was “inactive”.
In the case of `O=C(O)c1cc(O)c(O)c(O)c1` [GALLIC ACID], the Activity is reported as “inactive”.
In the case of `O=C(NCCCCCCNC(=O)c1cc(O)c(O)c(O)c1)c1cc(O)c(O)c(O)c1`, the Activity is reported as “inactive”.

Test system: Human immunodeficiency virus 1
Test: Antiviral activity against HIV1 3B infected in human CEM cells assessed as reduction in virus-induced cytopathicity after 4 to 5 days by microscopy based syncytium cell formation assay
Type: functional, organism-based, CCRF-CEM
Settings: Human immunodeficiency virus 1, 3B, CCRF-CEM; read-out: EC50
Molecule `O=C(NCCCOCCOCCOCCCNC(=O)c1ccc(O)c(O)c1O)c1ccc(O)c(O)c1O` has an EC50 greater than 50 µM.
For `O=C(NCCNC(=O)c1cccc(O)c1O)c1cccc(O)c1O`, the EC50 was greater than 10 µM.
`O=C(O)c1cc(O)c(O)c(O)c1` [GALLIC ACID] showed an EC50 greater than 50 µM.
`O=C(NCCCCCCNC(=O)c1cc(O)c(O)c(O)c1)c1cc(O)c(O)c(O)c1` showed an EC50 greater than 10 µM.

Test system: Human immunodeficiency virus 2
Test: Antiviral activity against HIV2 ROD infected in human CEM cells assessed as reduction in virus-induced cytopathicity after 4 to 5 days by microscopy based syncytium cell formation assay
Type: functional, organism-based, ISOLATE ROD, CCRF-CEM
Settings: Human immunodeficiency virus 2, ISOLATE ROD, CCRF-CEM; read-out: EC50
`O=C(NCCCOCCOCCOCCCNC(=O)c1ccc(O)c(O)c1O)c1ccc(O)c(O)c1O` gave an EC50 greater than 50 µM.
`O=C(NCCNC(=O)c1cccc(O)c1O)c1cccc(O)c1O` showed an EC50 greater than 10 µM.
Molecule `O=C(O)c1cc(O)c(O)c(O)c1` [GALLIC ACID] has an EC50 greater than 50 µM.
Work on `O=C(NCCCCCCNC(=O)c1cc(O)c(O)c(O)c1)c1cc(O)c(O)c(O)c1` yielded an EC50 greater than 10 µM.

Test system: Felid alphaherpesvirus 1
Test: Antiviral activity against feline herpesvirus
Type: functional, organism-based
Settings: not given
For `O=C(NCCCOCCOCCOCCCNC(=O)c1ccc(O)c(O)c1O)c1ccc(O)c(O)c1O`, the Activity was “inactive”.
With `O=C(NCCNC(=O)c1cccc(O)c1O)c1cccc(O)c1O` the Activity was “inactive”.
For `O=C(O)c1cc(O)c(O)c(O)c1` [GALLIC ACID], the Activity was “inactive”.
With `O=C(NCCCCCCNC(=O)c1cc(O)c(O)c(O)c1)c1cc(O)c(O)c(O)c1` the Activity was “inactive”.

Test system: Coxsackievirus B4
Test: Antiviral activity against human coxsackievirus B4
Type: functional, organism-based
Settings: not given
With `O=C(NCCCOCCOCCOCCCNC(=O)c1ccc(O)c(O)c1O)c1ccc(O)c(O)c1O` the Activity was “inactive”.
With `O=C(NCCNC(=O)c1cccc(O)c1O)c1cccc(O)c1O` the Activity was “inactive”.
In the case of `O=C(O)c1cc(O)c(O)c(O)c1` [GALLIC ACID], the Activity is reported as “inactive”.
With `O=C(NCCCCCCNC(=O)c1cc(O)c(O)c(O)c1)c1cc(O)c(O)c(O)c1` the Activity was “inactive”.

Test system: Vaccinia virus
Test: Antiviral activity against vaccinia virus
Type: functional, organism-based
Settings: Orthopoxvirus vaccinia
For `O=C(NCCCOCCOCCOCCCNC(=O)c1ccc(O)c(O)c1O)c1ccc(O)c(O)c1O`, the Activity was “inactive”.
For `O=C(NCCNC(=O)c1cccc(O)c1O)c1cccc(O)c1O`, the Activity was “inactive”.
For `O=C(O)c1cc(O)c(O)c(O)c1` [GALLIC ACID], the Activity was “inactive”.
For `O=C(NCCCCCCNC(=O)c1cc(O)c(O)c(O)c1)c1cc(O)c(O)c(O)c1`, the Activity was “inactive”.

Test system: Chikungunya virus
Test: Antiviral activity against chikungunya virus
Type: functional
Settings: not given
For `O=C(NCCCOCCOCCOCCCNC(=O)c1ccc(O)c(O)c1O)c1ccc(O)c(O)c1O`, the Activity was “inactive”.
In the case of `O=C(NCCNC(=O)c1cccc(O)c1O)c1cccc(O)c1O`, the Activity is reported as “inactive”.
In the case of `O=C(O)c1cc(O)c(O)c(O)c1` [GALLIC ACID], the Activity is reported as “inactive”.
In the case of `O=C(NCCCCCCNC(=O)c1cc(O)c(O)c(O)c1)c1cc(O)c(O)c(O)c1`, the Activity is reported as “inactive”.

Test system: Punta Toro virus
Test: Antiviral activity against punta toro virus
Type: functional, organism-based
Settings: not given
In the case of `O=C(NCCCOCCOCCOCCCNC(=O)c1ccc(O)c(O)c1O)c1ccc(O)c(O)c1O`, the Activity is reported as “inactive”.
For `O=C(NCCNC(=O)c1cccc(O)c1O)c1cccc(O)c1O`, the Activity was “inactive”.
In the case of `O=C(O)c1cc(O)c(O)c(O)c1` [GALLIC ACID], the Activity is reported as “inactive”.
In the case of `O=C(NCCCCCCNC(=O)c1cc(O)c(O)c(O)c1)c1cc(O)c(O)c(O)c1`, the Activity is reported as “inactive”.

Test system: Respiratory syncytial virus
Test: Antiviral activity against RSV
Type: functional, organism-based
Settings: not given
With `O=C(NCCCOCCOCCOCCCNC(=O)c1ccc(O)c(O)c1O)c1ccc(O)c(O)c1O` the Activity was “inactive”.
With `O=C(NCCNC(=O)c1cccc(O)c1O)c1cccc(O)c1O` the Activity was “inactive”.
For `O=C(O)c1cc(O)c(O)c(O)c1` [GALLIC ACID], the Activity was “inactive”.
In the case of `O=C(NCCCCCCNC(=O)c1cc(O)c(O)c(O)c1)c1cc(O)c(O)c(O)c1`, the Activity is reported as “inactive”.

Test system: Reovirus sp.
Test: Antiviral activity against reovirus
Type: functional, organism-based
Settings: not given
In the case of `O=C(NCCCOCCOCCOCCCNC(=O)c1ccc(O)c(O)c1O)c1ccc(O)c(O)c1O`, the Activity is reported as “inactive”.
For `O=C(NCCNC(=O)c1cccc(O)c1O)c1cccc(O)c1O`, the Activity was “inactive”.
With `O=C(O)c1cc(O)c(O)c(O)c1` [GALLIC ACID] the Activity was “inactive”.
For `O=C(NCCCCCCNC(=O)c1cc(O)c(O)c(O)c1)c1cc(O)c(O)c(O)c1`, the Activity was “inactive”.

Test system: Sindbis virus
Test: Antiviral activity against sindbis virus
Type: functional, organism-based
Settings: not given
With `O=C(NCCCOCCOCCOCCCNC(=O)c1ccc(O)c(O)c1O)c1ccc(O)c(O)c1O` the Activity was “inactive”.
With `O=C(NCCNC(=O)c1cccc(O)c1O)c1cccc(O)c1O` the Activity was “inactive”.
With `O=C(O)c1cc(O)c(O)c(O)c1` [GALLIC ACID] the Activity was “inactive”.
With `O=C(NCCCCCCNC(=O)c1cc(O)c(O)c(O)c1)c1cc(O)c(O)c(O)c1` the Activity was “inactive”.

Test system: Feline coronavirus
Test: Antiviral activity against feline coronavirus
Type: functional, organism-based
Settings: not given
In the case of `O=C(NCCCOCCOCCOCCCNC(=O)c1ccc(O)c(O)c1O)c1ccc(O)c(O)c1O`, the Activity is reported as “inactive”.
In the case of `O=C(NCCNC(=O)c1cccc(O)c1O)c1cccc(O)c1O`, the Activity is reported as “inactive”.
In the case of `O=C(O)c1cc(O)c(O)c(O)c1` [GALLIC ACID], the Activity is reported as “inactive”.
In the case of `O=C(NCCCCCCNC(=O)c1cc(O)c(O)c(O)c1)c1cc(O)c(O)c(O)c1`, the Activity is reported as “inactive”.

Test system: Human respirovirus 3
Test: Antiviral activity against human parainfluenza virus 3
Type: functional, organism-based
Settings: not given
For `O=C(NCCCOCCOCCOCCCNC(=O)c1ccc(O)c(O)c1O)c1ccc(O)c(O)c1O`, the Activity was “inactive”.
With `O=C(NCCNC(=O)c1cccc(O)c1O)c1cccc(O)c1O` the Activity was “inactive”.
In the case of `O=C(O)c1cc(O)c(O)c(O)c1` [GALLIC ACID], the Activity is reported as “inactive”.
For `O=C(NCCCCCCNC(=O)c1cc(O)c(O)c(O)c1)c1cc(O)c(O)c(O)c1`, the Activity was “inactive”.
